pIC50: −log10 of the molar value. Where two headings read alike, the source gives them in different places.
Tested on: phosphate uptake by rabbit intestinal Brush Border Membrane Vesicles (BBMV)
Experiment: 33PO4 uptake in rabbit intestinal BBMV (HTS), phosphate transporter inhibition in vitro
Assay type: biochemical
Conditions: read-out: IC50
Method: The following example outlines the procedures required for in vitro measurement of the inhibition of phosphate uptake by rabbit intestinal Brush Border Membrane Vesicles (BBMV).
Rabbit Intestinal Brush Border Membrane Vesicles (BBMV) were isolated from mucosal scrapings of the upper small intestine (duodenum) of male New Zealand White rabbits. The scrapings were divided into 2 g aliquots in cryopreservation vials, frozen in liquid nitrogen, and stored at −80° C.
The following procedure was performed for each 2 g sample of BBMV mucosal scraping. Buffer volumes and container sizes were adjusted appropriately for the number of 2 g samples used. The entire preparation was performed on ice, unless otherwise stated.
Mucosal scrapings (2 g per tube) were thawed in a 37° C. water bath for 3 minutes and then placed on ice. The scrapings were suspended with a total of 7.5 ml of 300 MET, and transferred to a 250 mL Corning tube on ice. To the suspension was added 30 mL cold (4° C.) deionized water (dH20). The suspension was homogenized with a tissue homogenizer (Polytron) on high speed for 2 minutes. A stir bar and MgCl2 (81.3 mg) was added. The suspension was mixed well by inverting the closed tube. The suspension was stirred on ice, ensuring that a good vortex is achieved with the stir bar, for 40 minutes. The suspension was transferred to a chilled centrifuge tube and spun at 4000×g for 15 minutes. The supernatant was transferred to a new chilled centrifuge tube and spun at 32000×g for 30 minutes. The supernatant was discarded and the pellet was re-suspended with 34 mL cold 60 MET. The suspension was homogenized with a Dounce homogenizer with 8 strokes. The suspension was transferred to a fresh 250 mL Corning tube. A stir bar and 69.1 mg MgCl2 were added. The suspension was stirred well on ice for 10 minutes. The suspension was transferred to a chilled centrifuge tube and spun at 4000×g for 15 minutes. The supernatant was transferred to a new chilled centrifuge tube and spun at 32000×g for 30 minutes. The supernatant was discarded. At this stage, the preparation could be continued or this pellet (P4) could be frozen in liquid nitrogen and stored at −80° C. When needed, this pellet could be allowed to thaw at room temperature for 5 minutes. Continuing the preparation, the pellet was re-suspended with 34 mL cold 280 MH. The suspension was homogenized in a Dounce homogenize with 8 strokes. The suspension was transferred to a new chilled centrifuge tube and spun at 32000×g for 30 minutes. The supernatant was discarded. To the pellet was added 500 μL 280 MH and the pellet was re-suspended very carefully with a 1 mL tuberculin syringe with a 25-gauge needle with care not to create bubbles. Once the entire pellet was suspended, the suspension was transferred to a chilled 1.5 mL microfuge tube. The suspension was evenly dispersed by bringing the suspension up into the syringe through the 25-gauge needle, and back out again 8 times with care not to create bubbles. The total protein concentration was determined by performing a Bradford Protein Assay. Using that value, the BBMV were diluted with 280 MH to reach approximately 0.5-2.0 mg/mL. The solution was used as soon as possible for uptake studies.
The following experiment was performed using a Beckman Multimek 96-tip robotic pipettor. The following outlines the preparation required to screen one 96-well plate of compounds. However, multiple plates could be screened in one experiment.
To the “Uptake Buffers” was added ^33PO4 to reach 200,000 CPM/19 μL. The buffer solutions were stored at room temperature. The following control solutions were prepared and placed into appropriate wells of a polypropylene, 96-well V-bottom plate (“Hot Stock Plate”):
a. Maximum activity (MAX)−Na Uptake buffer+^33PO4 at 200,000 CPM/19 μL
b. Midline activity (MID)−MAX+100 μM KH2PO4, pH 7.4
c. Minimum activity (MIN)− K Uptake buffer+^33PO4 at 200,000 CPM/19 μL

pIC50 (Table 1, phosphate uptake)	pIC50 (Table 2, phosphate uptake)	SMILES
> 4.30		O=C(O)c1cc(Br)ccc1NS(=O)(=O)c1ccc(-c2ccccc2)cc1 [Compound 1]
> 4.30		O=C(O)c1cc(Br)ccc1NS(=O)(=O)c1ccc(OC(F)(F)F)cc1 [Compound 2]
4.00 to 4.29		O=C(O)c1cc(Br)ccc1NS(=O)(=O)c1cc(C(F)(F)F)cc(C(F)(F)F)c1 [Compound 3]
4.00 to 4.29		O=C(O)c1cc(Br)ccc1NS(=O)(=O)c1cc(Cl)c(Cl)cc1Cl [Compound 4]
4.00 to 4.29		O=C(O)c1cc(Br)ccc1NS(=O)(=O)c1ccc([N+](=O)[O-])cc1 [Compound 5]
4.00 to 4.29		Cc1cc(C)c(S(=O)(=O)Nc2ccc(Br)cc2C(=O)O)c(C)c1 [Compound 6]
4.00 to 4.29		O=C(O)c1cc(Br)ccc1NS(=O)(=O)c1ccc(C(F)(F)F)cc1 [Compound 7]
4.00 to 4.29		O=C(O)c1cc(Br)ccc1NS(=O)(=O)c1ccc(-c2ccccc2)cc1 [Compound 8]
4.00 to 4.29		Cc1ccc(S(=O)(=O)Nc2ccc(Br)cc2C(=O)O)cc1[N+](=O)[O-] [Compound 9]
3.30 to 4.00		O=C(O)c1cc(Br)ccc1NS(=O)(=O)c1cccc(Cl)c1 [Compound 10]
3.30 to 4.00		O=C(O)c1cc(Br)ccc1NS(=O)(=O)c1ccc(Oc2ccccc2)cc1 [Compound 11]
3.30 to 4.00		O=C(O)c1cc(Br)ccc1NS(=O)(=O)c1ccc(Cl)c([N+](=O)[O-])c1 [Compound 12]
3.30 to 4.00		O=C(O)c1cc(Br)ccc1NS(=O)(=O)c1cccc([N+](=O)[O-])c1 [Compound 13]
3.30 to 4.00		O=C(O)c1cc(Br)ccc1NS(=O)(=O)c1ccc(OC(F)(F)F)cc1 [Compound 14]
3.30 to 4.00		O=C(O)c1cc(Br)ccc1NS(=O)(=O)c1ccc(Cl)c([N+](=O)[O-])c1 [Compound 15]
3.30 to 4.00		O=C(O)c1cc(Br)ccc1NS(=O)(=O)c1cccc(C(F)(F)F)c1 [Compound 16]
3.30 to 4.00		O=C(O)c1cc(Br)ccc1NS(=O)(=O)c1ccc(Br)cc1 [Compound 18]
3.30 to 4.00		O=C(O)c1cc(Br)ccc1NS(=O)(=O)c1cccc2ccccc12 [Compound 19]
3.30 to 4.00		Cc1ccc(S(=O)(=O)Nc2ccc(Br)cc2C(=O)O)cc1[N+](=O)[O-] [Compound 20]
3.30 to 4.00		O=C(O)c1cc(Br)ccc1NS(=O)(=O)c1ccc(I)cc1 [Compound 24]
3.30 to 4.00		O=C(O)c1cc(Br)ccc1NS(=O)(=O)c1ccccc1F [Compound 25]

pIC50 (Table 1, phosphate uptake)	pIC50 (Table 2, phosphate uptake)	SMILES
3.30 to 4.00		O=C(O)c1cc(Br)ccc1NS(=O)(=O)c1ccccc1C(F)(F)F [Compound 26]
3.30 to 4.00		O=C(O)c1cc(Br)ccc1NS(=O)(=O)c1ccc(Cl)cc1 [Compound 27]
3.30 to 4.00		CCCCCc1ccc(S(=O)(=O)Nc2ccc(Br)cc2C(=O)O)cc1 [Compound 28]
3.30 to 4.00		O=C(O)c1cc(Br)ccc1NS(=O)(=O)c1ccc(Cl)cc1 [Compound 29]
3.30 to 4.00		C=Cc1ccc(S(=O)(=O)Nc2ccc(Br)cc2C(=O)O)cc1 [Compound 30]
3.30 to 4.00		O=C(O)c1cc(Br)ccc1NS(=O)(=O)c1ccccc1Cl [Compound 31]
3.30 to 4.00		O=C(O)c1cc(Br)ccc1NS(=O)(=O)c1ccc([N+](=O)[O-])cc1 [Compound 33]
3.30 to 4.00		O=C(O)c1cc(Br)ccc1NS(=O)(=O)c1cccc(F)c1 [Compound 34]
3.30 to 4.00		COc1ccc(OC)c(S(=O)(=O)Nc2ccc(Br)cc2C(=O)O)c1 [Compound 35]
3.00 to 3.30		COc1ccc(S(=O)(=O)Nc2ccc(Br)cc2C(=O)O)cc1 [Compound 37]
2.82 to 3.00		O=C(O)c1cc(Br)ccc1NS(=O)(=O)c1ccccc1[N+](=O)[O-] [Compound 38]
< 2.82		O=C(O)c1cc(Br)ccc1NS(=O)(=O)c1ccc(Cl)cc1 [Compound 39]
< 2.82		O=C(O)c1cc(Br)ccc1NS(=O)(=O)c1ccc(Cl)c([N+](=O)[O-])c1 [Compound 40]
< 2.82		O=C(O)c1cc(Br)ccc1NS(=O)(=O)c1ccc(OC(F)(F)F)cc1 [Compound 41]
< 2.82		COc1ccc(S(=O)(=O)Nc2ccc(Br)cc2C(=O)O)cc1[N+](=O)[O-] [Compound 42]
< 2.82		O=C(O)c1cc(Br)ccc1NS(=O)(=O)c1ccc(Cl)cc1 [Compound 43]
< 2.82		O=C(O)c1cc(Br)ccc1NS(=O)(=O)c1ccc(O)c([N+](=O)[O-])c1 [Compound 44]
< 2.82		O=C(O)c1cc(Br)ccc1NS(=O)(=O)c1ccc(Cl)cc1 [Compound 46]
< 2.82		O=C(O)c1ccc(S(=O)(=O)Nc2ccc(Br)cc2C(=O)O)cc1 [Compound 47]
< 2.82		O=C(O)c1cc(Br)ccc1NS(=O)(=O)c1ccccc1[N+](=O)[O-] [Compound 48]
	> 4.30	O=C(Nc1ccccc1Cl)c1cc(Br)ccc1NS(=O)(=O)c1ccc(OC(F)(F)F)cc1 [Compound 50]

pIC50 (Table 1, phosphate uptake)	pIC50 (Table 2, phosphate uptake)	SMILES
	> 4.30	O=C(Nc1ccc(Br)cc1)c1cc(Br)ccc1NS(=O)(=O)c1ccc(OC(F)(F)F)cc1 [Compound 51]
	> 4.30	O=C(NCc1ccc(F)cc1)c1cc(Br)ccc1NS(=O)(=O)c1ccc(OC(F)(F)F)cc1 [Compound 52]
	> 4.30	O=C(NCc1ccc(Cl)cc1)c1cc(Br)ccc1NS(=O)(=O)c1ccc(OC(F)(F)F)cc1 [Compound 53]
	> 4.30	COc1cccc(CNC(=O)c2cc(Br)ccc2NS(=O)(=O)c2ccc(OC(F)(F)F)cc2)c1 [Compound 54]
	> 4.30	O=C(NCc1ccccc1C(F)(F)F)c1cc(Br)ccc1NS(=O)(=O)c1ccc(OC(F)(F)F)cc1 [Compound 55]
	4.00 to 4.29	COc1ccc(NC(=O)c2cc(Br)ccc2NS(=O)(=O)c2ccc(OC(F)(F)F)cc2)cc1 [Compound 56]
	4.00 to 4.29	Cc1ccc(NC(=O)c2cc(Br)ccc2NS(=O)(=O)c2ccc(OC(F)(F)F)cc2)cc1 [Compound 57]
	4.00 to 4.29	Cc1cccc(CNC(=O)c2cc(Br)ccc2NS(=O)(=O)c2ccc(OC(F)(F)F)cc2)c1 [Compound 58]
	4.00 to 4.29	O=C(Nc1ccc(Cl)c(Cl)c1)c1cc(Br)ccc1NS(=O)(=O)c1ccc(OC(F)(F)F)cc1 [Compound 59]
	4.00 to 4.29	O=C(NCc1ccc(OC(F)(F)F)cc1)c1cc(Br)ccc1NS(=O)(=O)c1ccc(OC(F)(F)F)cc1 [Compound 60]
	4.00 to 4.29	O=C(NCc1ccccc1OC(F)(F)F)c1cc(Br)ccc1NS(=O)(=O)c1ccc(OC(F)(F)F)cc1 [Compound 61]
	4.00 to 4.29	O=C(Nc1ccccc1Br)c1cc(Br)ccc1NS(=O)(=O)c1ccc(OC(F)(F)F)cc1 [Compound 62]
	4.00 to 4.29	O=C(NCc1ccc(Cl)c(Cl)c1)c1cc(Br)ccc1NS(=O)(=O)c1ccc(OC(F)(F)F)cc1 [Compound 63]
	4.00 to 4.29	O=C(NCc1ccc(F)cc1F)c1cc(Br)ccc1NS(=O)(=O)c1ccc(OC(F)(F)F)cc1 [Compound 64]
	4.00 to 4.29	CSc1ccc(NC(=O)c2cc(Br)ccc2NS(=O)(=O)c2ccc(OC(F)(F)F)cc2)cc1 [Compound 65]
	4.00 to 4.29	O=C(NCc1cc(F)ccc1F)c1cc(Br)ccc1NS(=O)(=O)c1ccc(OC(F)(F)F)cc1 [Compound 66]
	4.00 to 4.29	Cc1ccccc1CNC(=O)c1cc(Br)ccc1NS(=O)(=O)c1ccc(OC(F)(F)F)cc1 [Compound 67]
	3.30 to 4.00	O=C(Nc1ccccc1-n1cccc1)c1cc(Br)ccc1NS(=O)(=O)c1ccc(OC(F)(F)F)cc1 [Compound 68]
	3.30 to 4.00	O=C(NCc1cc(C(F)(F)F)cc(C(F)(F)F)c1)c1cc(Br)ccc1NS(=O)(=O)c1ccc(OC(F)(F)F)cc1 [Compound 69]
	3.30 to 4.00	O=C(NCc1ccccc1F)c1cc(Br)ccc1NS(=O)(=O)c1ccc(OC(F)(F)F)cc1 [Compound 70]
	3.30 to 4.00	CC(C)(C)c1ccc(NC(=O)c2cc(Br)ccc2NS(=O)(=O)c2ccc(OC(F)(F)F)cc2)cc1 [Compound 71]

Source: patent US20070021509A1, “Phosphate transport inhibitors” (priority 2001, published 2007)
